We go through 1 compound from patent US12116333B1, “3,3'-(hydrazine-1,2-diyl)bis(1-(naphthalen-2-yloxy)propan-2-ol) as an ecofriendly insecticidal agent against spodoptera littoralis (boisd.)” (KING FAISAL UNIVERSITY, priority 2023, dated 2024).

Values after ≈ are worked out from the molar mass of the structure shown.

The test system of this series is Spodoptera littoralis. The experiment in a line: Insecticidal bioassay screening (castor leaf dip) against 2nd and 4th instar larvae. It counts as in vivo. The note with it: for Toxic ratio: 72 h, fenoxycarb's LC50/compound's LC50 ×100. Here is the method:
Five concentrations (200, 100, 50, 25, 12.5 ppm) were designed for this synthetic compound and the reference fenoxycarb compound as the dynamic ingredients based on ppm via diluting the commercial formulation.
In this experiment, castor leaves were immersed in each of the previously prepared concentrations of the components for 10 seconds and then left to dry for 60 minutes.
Larvae of the second and fourth instars of each checked strain were prepared with treated leaves in gauze-covered glass containers for 72 hrs. An untreated control was made in which leaves were dipped in triton x-100 and distilled water only. Then, the preserved leaves were removed & fresh, untreated leaves were provided for 72 hours. Three replicates (10 larvae each) were checked for each concentration. Daily inspection was carried out for all treatments and mortality percentages were recorded 3 days (72 hours) after treatment. The average mortality percentage was corrected employing Abbott's formula. The corrected mortality rate for each of the previously synthesized compounds was statistically calculated according to Finney (1970). Through this rate, the corresponding concentration test lines (LDP lines) were assessed. Fifty and ninety percent mortality was determined, and the regression values for the checked products were previously evaluated.

In general, LC50 refers to the concentration lethal to half of the exposed cells or organisms. Lower therefore signals greater toxicity. For the compound `CCOC(=O)NCCOc1ccc(Oc2ccccc2)cc1` [Fenoxycarb], the 50% lethal concentration (LC50) by setting is: (2nd instar larvae of S. littoralis, after 72 h of treatment) 2.73 ppm; (4th instar larvae of S. littoralis, after 72 h of treatment) 43.231 ppm; (Spodoptera littoralis, foliar) 2.73 µg/mL (≈ 9.06 µM). Besides, the Toxic ratio (2nd instar larvae) came to 100 and the Toxic ratio (4th instar larvae) stood at 1.
